Data published in patent USRE47302E1 (ONYX THERAPEUTICS INC., priority 2013, dated 2019).
In brackets after ≈: the same amount, converted by molar mass.

assay: Solubility pH 7; settings: pH 7

| SMILES | Solubility pH 7 (μg/mL) |
| --- | --- |
| COc1ccc(C[C@H](NC(=O)[C@H](C)NC(=O)CN2CCOCC2)C(=O)N[C@@H](C[C@H]2CCOC2)C(=O)[C@@]2(C)CO2)cc1 [Compound C-1025, (S)-3-(4-methoxyphenyl)-N-((S)-1-((R)-2-methyloxiran-2-yl)-1-oxo-3-((S)-tetrahydrofuran-3-yl)propan-2-yl)-2-((S)-2-(2-morpholinoacetamido)propanamido) propanamide] | >10 μg/mL |

same assay, conditions: pH 7, aqueous buffer

| SMILES | solubility |
| --- | --- |
| COc1ccc(C[C@H](NC(=O)[C@@H](C)NC(=O)[C@H]2CNC(=O)C2)C(=O)N[C@@H](CC2CCCC2)C(=O)[C@@]2(C)CO2)cc1 [Compound C-1067, (R)-N-((R)-1-(((S)-1-(((S)-3-cyclopentyl-1-((R)-2-methyloxiran-2-yl)-1-oxopropan-2-yl)amino)-3-(4-methoxyphenyl)-1-oxopropan-2-yl)amino)-1-oxopropan-2-yl)-5-oxopyrrolidine-3-carboxamide] | 4590 µg/mL (≈ 8.25 mM) |
| COc1ccc(C[C@H](NC(=O)[C@@H](C)NC(=O)[C@@H]2CNC(=O)C2)C(=O)N[C@@H](CC2CCCC2)C(=O)[C@@]2(C)CO2)cc1 [Compound C-1068, (S)-N-((R)-1-(((S)-1-(((S)-3-cyclopentyl-1-((R)-2-methyloxiran-2-yl)-1-oxopropan-2-yl)amino)-3-(4-methoxyphenyl)-1-oxopropan-2-yl)amino)-1-oxopropan-2-yl)-5-oxopyrrolidine-3-carboxamide] | 4410 µg/mL (≈ 7.92 mM) |
| C[C@H](NC(=O)CN1CCOCC1)C(=O)N[C@@H](Cc1ccc2[nH]cnc2c1)C(=O)N[C@@H](CC1CCCC1)C(=O)[C@@]1(C)CO1 [Compound C-1069, (S)-3-(1H-benzo[d]imidazol-5-yl)-N-((S)-3-cyclopentyl-1-((R)-2-methyloxiran-2-yl)-1-oxopropan-2-yl)-2-((S)-2-(2-morpholinoacetamido)propanamido)propanamide] | 3540 µg/mL (≈ 6.08 mM) |
| COc1ccc(C[C@H](NC(=O)[C@@H](C)NC(=O)[C@H]2CC[C@H](O)CC2)C(=O)N[C@@H](CC2CC(F)(F)C2)C(=O)[C@@]2(C)CO2)cc1 [Compound C-1073, (1r,4R)-N-((R)-1-(((S)-1-(((S)-3-(3,3-difluorocyclobutyl)-1-((R)-2-methyloxiran-2-yl)-1-oxopropan-2-yl)amino)-3-(4-methoxyphenyl)-1-oxopropan-2-yl)amino)-1-oxopropan-2-yl)-4-hydroxycyclohexanecarboxamide] | 2180 µg/mL (≈ 3.67 mM) |
| COc1ccc(C[C@H](NC(=O)[C@@H](C)NC(=O)[C@@H]2CC[C@@H](O)C2)C(=O)N[C@@H](CC2CCCC2)C(=O)[C@@]2(C)CO2)cc1 [Compound C-1077, (1R,3R)-N-((R)-1-(((S)-1-(((S)-3-cyclopentyl-1-((R)-2-methyloxiran-2-yl)-1-oxopropan-2-yl)amino)-3-(4-methoxyphenyl)-1-oxopropan-2-yl)amino)-1-oxopropan-2-yl)-3-hydroxycyclopentanecarboxamide] | 1540 µg/mL (≈ 2.75 mM) |
| COc1ccc(C[C@H](NC(=O)[C@@H](C)NC(=O)[C@@H]2CC[C@H](O)C2)C(=O)N[C@@H](CC2CCCC2)C(=O)[C@@]2(C)CO2)cc1 [Compound C-1078, (1R,3S)-N-((R)-1-(((S)-1-(((S)-3-cyclopentyl-1-((R)-2-methyloxiran-2-yl)-1-oxopropan-2-yl)amino)-3-(4-methoxyphenyl)-1-oxopropan-2-yl)amino)-1-oxopropan-2-yl)-3-hydroxycyclopentanecarboxamide] | 873 µg/mL (≈ 1.57 mM) |
| C[C@H](NC(=O)CN1CCOCC1)C(=O)N[C@@H](Cc1ccc2c(c1)CC(=O)N2)C(=O)N[C@@H](CC1CCCC1)C(=O)[C@@]1(C)CO1 [Compound C-1081, (S)-N-((S)-3-cyclopentyl-1-((R)-2-methyloxiran-2-yl)-1-oxopropan-2-yl)-2-((S)-2-(2-morpholinoacetamido)propanamido)-3-(2-oxoindolin-5-yl)propanamide] | 2760 µg/mL (≈ 4.62 mM) |
| C[C@H](NC(=O)CN1CCOCC1)C(=O)N[C@@H](Cc1ccc2c(c1)CCC(=O)N2)C(=O)N[C@@H](CC1CCCC1)C(=O)[C@@]1(C)CO1 [Compound C-1086, (S)-N-((S)-3-cyclopentyl-1-((R)-2-methyloxiran-2-yl)-1-oxopropan-2-yl)-2-((S)-2-(2-morpholinoacetamido)propanamido)-3-(2-oxo-1,2,3,4-tetrahydroquinolin-6-yl)propanamide] | 3860 µg/mL (≈ 6.32 mM) |
| C[C@H](NC(=O)CN1CCOCC1)C(=O)N[C@@H](Cc1ccc2c(c1)CCNS2(=O)=O)C(=O)N[C@@H](CC1CCCC1)C(=O)[C@@]1(C)CO1 [Compound C-1091, (S)-N-((S)-3-cyclopentyl-1-((R)-2-methyloxiran-2-yl)-1-oxopropan-2-yl)-3-(1,1-dioxido-3,4-dihydro-2H-benzo[e][1,2]thiazin-6-yl)-2-((S)-2-(2-morpholinoacetamido)propanamido)propanamide] | 230 µg/mL (≈ 0.356 mM) |

Second part, the molecule after the results:

| solubility | SMILES |
| --- | --- |
| 3190 µg/mL (≈ 5.29 mM) | COc1ccc(C[C@H](NC(=O)[C@H](C)NC(=O)CN2CCOCC2)C(=O)N[C@@H](C[C@H]2CC[C@H](O)CC2)C(=O)[C@@]2(C)CO2)cc1 [Compound C-1002, (S)-N-((S)-3-((1r,4S)-4-hydroxycyclohexyl)-1-((R)-2-methyloxiran-2-yl)-1-oxopropan-2-yl)-3-(4-methoxyphenyl)-2-((S)-2-(2-morpholinoacetamido)propanamido)propanamide] |
| 6890 µg/mL (≈ 12 mM) | COc1ccc(C[C@H](NC(=O)[C@H](C)NC(=O)CN2CCOCC2)C(=O)N[C@@H](C[C@@H]2CCCO2)C(=O)[C@@]2(C)CO2)cc1 [Compound C-1016, (S)-3-(4-methoxyphenyl)-N-((S)-1-((R)-2-methyloxhan-2-yl)-1-oxo-3-((S)-tetrahydrofuran-2-yl)propan-2-yl)-2-((S)-2-(2-morpholinoacetamido)propanamido)propanamide] |
| > 10 µg/mL | COc1ccc(C[C@H](NC(=O)[C@H](C)NC(=O)CN2CCOCC2)C(=O)N[C@@H](CC2CNC(=O)C2)C(=O)[C@@]2(C)CO2)cc1 (stereo partly drawn) [Compound C-1035, (2S)-3-(4-methoxyphenyl)-N-((2S)-1-((R)-2-methyloxiran-2-yl)-1-oxo-3-(5-oxopyrrolidin-3-yl)propan-2-yl)-2-((S)-2-(2-morpholinoacetamido)propanamido)propanamide] |
| 12300 µg/mL (≈ 20.5 mM) | COc1ccc(C[C@H](NC(=O)[C@H](C)NC(=O)CN2CCOCC2)C(=O)N[C@@H](C[C@H]2CCN(C)C2=O)C(=O)[C@@]2(C)CO2)cc1 [Compound C-1040, (2S)-3-(4-methoxyphenyl)-N-((2S)-3-(1-methyl-2-oxopyrrolidin-3-yl)-1-((R)-2-methyloxiran-2-yl)-1-oxopropan-2-yl)-2-((S)-2-(2-morpholinoacetamido)propanamido) propanamide] |
| 8780 µg/mL (≈ 14.9 mM) | COc1ccc(C[C@H](NC(=O)[C@H](C)NC(=O)CN2CCOCC2)C(=O)N[C@@H](CN2CCCC2=O)C(=O)[C@@]2(C)CO2)cc1 [Compound C-1042, (S)-3-(4-methoxyphenyl)-N-((S)-1-((R)-2-methyloxiran-2-yl)-1-oxo-3-(2-oxopyrrolidin-1-yl)propan-2-yl)-2-((S)-2-(2-morpholinoacetamido)propanamido)propanamide] |
| 125 µg/mL (≈ 0.2 mM) | C[C@H](NC(=O)CN1CCOCC1)C(=O)N[C@@H](Cc1ccc(OC(F)(F)F)cc1)C(=O)N[C@@H](CC1CCCC1)C(=O)[C@@]1(C)CO1 [Compound C-1084, (S)-N-((S)-3-cyclopentyl-1-((R)-2-methyloxiran-2-yl)-1-oxopropan-2-yl)-2-((S)-2-(2-morpholinoacetamido)propanamido)-3-(4-(trifluoromethoxy)phenyl)propanamide] |
